In PubChem BioAssay AID1963839 (Molecular Pharmacology Branch, DTP, NCI, 2024):

Tested on: 817829-284-R-J1-PDC complex spheroid viability
Assay: Anticancer human tumor 817829-284-R-J1-PDC patient-derived colon adenocarcinoma cell line growth inhibition [POLQ]
Conditions: for IC50: curve of first compound; for viability, T/C: stronger effect = lower value
Outline: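 Complex spheroid viability model combining PDC tumour cells with endothelial (HUVEC) and MSC stromal cells. Novobiocin, ART-558 or RP6685 were tested singly and in combination with standard and investigational anticancer drugs. Each was titrated in half-log steps from near clinical Cmax, or from 10 microM where Cmax was unknown.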

[1] = second compound 0.0316 µM, first compound 0.0316 µM
[2] = second compound 0.0316 µM, first compound 0.1 µM
[3] = second compound 0.0316 µM, first compound 0.316 µM
[4] = second compound 0.0316 µM, first compound 1 µM
[5] = second compound 0.0316 µM, first compound 3.16 µM
[6] = second compound 0.0316 µM, first compound 10 µM
[7] = second compound 0.1 µM, first compound 0.0316 µM
[8] = second compound 0.1 µM, first compound 0.1 µM
[9] = second compound 0.1 µM, first compound 0.316 µM
[10] = second compound 0.1 µM, first compound 1 µM
[11] = second compound 0.1 µM, first compound 3.16 µM
[12] = second compound 0.1 µM, first compound 10 µM
[13] = second compound 0.316 µM, first compound 0.0316 µM
[14] = second compound 0.316 µM, first compound 0.1 µM
[15] = second compound 0.316 µM, first compound 0.316 µM
[16] = second compound 0.316 µM, first compound 1 µM
[17] = second compound 0.316 µM, first compound 3.16 µM
[18] = second compound 0.316 µM, first compound 10 µM
[19] = second compound 1 µM, first compound 0.0316 µM
[20] = second compound 1 µM, first compound 0.1 µM
[21] = second compound 1 µM, first compound 0.316 µM
[22] = second compound 1 µM, first compound 1 µM
[23] = second compound 1 µM, first compound 3.16 µM
[24] = second compound 1 µM, first compound 10 µM
[25] = second compound 3.16 µM, first compound 0.0316 µM
[26] = second compound 3.16 µM, first compound 0.1 µM
[27] = second compound 3.16 µM, first compound 0.316 µM
[28] = second compound 3.16 µM, first compound 1 µM
[29] = second compound 3.16 µM, first compound 3.16 µM
[30] = second compound 3.16 µM, first compound 10 µM
[31] = second compound 10 µM, first compound 0.0316 µM
[32] = second compound 10 µM, first compound 0.1 µM
[33] = second compound 10 µM, first compound 0.316 µM
[34] = second compound 10 µM, first compound 1 µM
[35] = second compound 10 µM, first compound 3.16 µM
[36] = second compound 10 µM, first compound 10 µM
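Note: spheroids exposed to compounds for 7 days.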
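Throughout, for viability, T/C: 100% = DMSO vehicle-treated spheroids.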

With `CC1COCCN1c1cc(C2(O)CC3CCC(C2)O3)c2cnn(-c3ccn[nH]3)c2n1` (centres undefined) + Nc1ccc(C#CCN(C(=O)Cc2ncc(C(F)(F)F)cc2C(F)(F)F)c2ccc(F)cc2)nn1 the IC50 (second compound 0.0316 µM) was < 31.6 nM, the IC50 (second compound 0.1 µM) was < 31.6 nM and the IC50 (second compound 0.316 µM) was < 31.6 nM. For the same molecule, the IC50 (second compound 1 µM) was < 31.6 nM, the IC50 (second compound 3.16 µM) was < 31.6 nM and the IC50 (second compound 10 µM) was < 31.6 nM. For the same molecule, the viability, T/C [1] was 26.3%, the viability, T/C [2] was 7.07% and the viability, T/C [3] was 4.65%. For the same molecule, the viability, T/C [4] was 3.5%, the viability, T/C [5] was 3.48% and the viability, T/C [6] was 3.16%. For the same molecule, the viability, T/C [7] was 36%, the viability, T/C [8] was 9.38% and the viability, T/C [9] was 4.42%. It also gave a viability, T/C [10] of 3.56%, a viability, T/C [11] of 2.98% and a viability, T/C [12] of 2.77%. The viability, T/C [13] was 25.9%, the viability, T/C [14] was 10.1% and the viability, T/C [15] was 4.5%. For the same molecule, the viability, T/C [16] was 3.48%, the viability, T/C [17] was 3.21% and the viability, T/C [18] was 2.42%. The viability, T/C [19] was 29.4%, the viability, T/C [20] was 10.3% and the viability, T/C [21] was 4.41%. It also gave a viability, T/C [22] of 3.09%, a viability, T/C [23] of 2.69% and a viability, T/C [24] of 2.28%. It also gave a viability, T/C [25] of 29.5%, a viability, T/C [26] of 7.74% and a viability, T/C [27] of 3.99%. It also gave a viability, T/C [28] of 2.88%, a viability, T/C [29] of 2.96% and a viability, T/C [30] of 2.33%. The viability, T/C [31] was 22%, the viability, T/C [32] was 8.66% and the viability, T/C [33] was 3.65%. It also gave a viability, T/C [34] of 3.1%, a viability, T/C [35] of 2.74% and a viability, T/C [36] of 2.24%.

`CCc1cc2c(N3CCc4c(cc(Cn5ccnc5)cc4-c4cn(C)nc4C(F)(F)F)C3=O)cc(C)nc2c(OC)n1` + Nc1ccc(C#CCN(C(=O)Cc2ncc(C(F)(F)F)cc2C(F)(F)F)c2ccc(F)cc2)nn1 was tested, and the IC50 (second compound 0.0316 µM) was 1750 nM, the IC50 (second compound 0.1 µM) was 2070 nM and the IC50 (second compound 0.316 µM) was 1650 nM. The IC50 (second compound 1 µM) was 2190 nM, the IC50 (second compound 3.16 µM) was 973 nM and the IC50 (second compound 10 µM) was 963 nM. It also gave a viability, T/C [1] of 85.5%, a viability, T/C [2] of 73.8% and a viability, T/C [3] of 67.8%. For the same molecule, the viability, T/C [4] was 56.1%, the viability, T/C [5] was 43.7% and the viability, T/C [6] was 31.4%. The viability, T/C [7] was 101%, the viability, T/C [8] was 80.5% and the viability, T/C [9] was 71.9%. It also gave a viability, T/C [10] of 62.2%, a viability, T/C [11] of 46.7% and a viability, T/C [12] of 26.7%. The viability, T/C [13] was 92.9%, the viability, T/C [14] was 80.3% and the viability, T/C [15] was 71.7%. The viability, T/C [16] was 57.1%, the viability, T/C [17] was 40.4% and the viability, T/C [18] was 30%. For the same molecule, the viability, T/C [19] was 87%, the viability, T/C [20] was 66.3% and the viability, T/C [21] was 72.4%. For the same molecule, the viability, T/C [22] was 82.6%, the viability, T/C [23] was 37.3% and the viability, T/C [24] was 23%. It also gave a viability, T/C [25] of 98%, a viability, T/C [26] of 76.7% and a viability, T/C [27] of 65.5%. The viability, T/C [28] was 49%, the viability, T/C [29] was 37.8% and the viability, T/C [30] was 29.1%. It also gave a viability, T/C [31] of 101%, a viability, T/C [32] of 71.3% and a viability, T/C [33] of 68.5%. For the same molecule, the viability, T/C [34] was 50.2%, the viability, T/C [35] was 38.3% and the viability, T/C [36] was 30.4%.
